# In ChEMBL document CHEMBL4414648, “Novel Benzohydroxamate-Based Potent and Selective Histone Deacetylase 6 (HDAC6) Inhibitors Bearing a Pentaheterocyclic Scaffold: Design, Synthesis, and Biological Evaluation” (J Med Chem, 2019):
# Columns and labels:
# [1] = Stability in rat plasma assessed as parent compound remaining at 100 uM after 4 hrs by LC-MS/MS analysis; format: ADME, cell-free; conditions: read-out: Stability
# 697 = test: Cytotoxicity against human 697 cells after 48 hrs by CellTiter 96 aqueous one solution assay; format: cell-based; conditions: Homo sapiens, 697, 48 h
# [2] = Stability in human plasma assessed as parent compound remaining at 100 uM after 4 hrs by LC-MS/MS analysis; format: ADME, cell-free; conditions: read-out: Stability
# [3] = target: T1, Protein deacetylase HDAC6 (Homo sapiens, UniProt Q9UBN7); test: biochemical
# T1 sequence (Q9UBN7 whole entry): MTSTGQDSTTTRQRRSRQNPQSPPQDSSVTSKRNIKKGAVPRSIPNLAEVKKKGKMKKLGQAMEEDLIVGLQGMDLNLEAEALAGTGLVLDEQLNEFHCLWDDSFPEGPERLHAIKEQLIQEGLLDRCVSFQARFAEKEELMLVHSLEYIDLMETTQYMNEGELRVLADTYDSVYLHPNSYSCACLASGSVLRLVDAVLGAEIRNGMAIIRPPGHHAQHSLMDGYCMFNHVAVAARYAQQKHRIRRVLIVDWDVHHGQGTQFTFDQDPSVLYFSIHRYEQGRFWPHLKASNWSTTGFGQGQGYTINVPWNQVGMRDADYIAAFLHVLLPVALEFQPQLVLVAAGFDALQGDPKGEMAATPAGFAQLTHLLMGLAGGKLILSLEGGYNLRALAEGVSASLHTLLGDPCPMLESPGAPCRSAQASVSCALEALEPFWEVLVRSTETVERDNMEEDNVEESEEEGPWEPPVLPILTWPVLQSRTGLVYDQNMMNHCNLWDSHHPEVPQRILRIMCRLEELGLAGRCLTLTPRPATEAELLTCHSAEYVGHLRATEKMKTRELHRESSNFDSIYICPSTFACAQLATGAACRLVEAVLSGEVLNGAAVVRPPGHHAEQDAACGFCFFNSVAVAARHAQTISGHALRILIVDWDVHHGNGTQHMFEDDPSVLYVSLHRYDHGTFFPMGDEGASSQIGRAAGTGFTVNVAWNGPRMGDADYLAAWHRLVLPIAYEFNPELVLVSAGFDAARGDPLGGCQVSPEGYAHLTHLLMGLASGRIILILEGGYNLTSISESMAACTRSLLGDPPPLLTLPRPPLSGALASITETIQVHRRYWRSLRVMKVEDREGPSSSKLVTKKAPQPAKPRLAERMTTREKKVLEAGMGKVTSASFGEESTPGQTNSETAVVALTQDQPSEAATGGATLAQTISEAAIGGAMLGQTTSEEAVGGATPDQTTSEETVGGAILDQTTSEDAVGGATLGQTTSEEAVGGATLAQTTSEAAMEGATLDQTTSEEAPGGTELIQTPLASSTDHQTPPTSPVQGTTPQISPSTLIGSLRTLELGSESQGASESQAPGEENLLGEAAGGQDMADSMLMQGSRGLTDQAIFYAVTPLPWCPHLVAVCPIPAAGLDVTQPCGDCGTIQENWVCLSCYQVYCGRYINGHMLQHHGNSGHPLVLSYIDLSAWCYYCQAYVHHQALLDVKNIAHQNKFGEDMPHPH
# Description: Inhibition of recombinant full length human N-terminal GST-tagged HDAC6 expressed in baculovirus infected sf9 insect cells pretreated with compound followed by Fluor de Lys deacetylase substrate addition by fluorescence method
# Histone deacetylase = test: Inhibition of HDAC in human 697 cells assessed as increase in H3 acetylation at 1000 nM incubated for 16 hrs by ELISA; format: cell-based; conditions: human, 697, 16 h, 1 µM
# [4] = Selectivity ratio of IC50 for N-terminal Flag-tagged human HDAC10 (2 to 631 residues) expressed in baculovirus infected sf9 insect cells to IC50 for human N-terminal GST-tagged HDAC6 expressed in baculovirus infected sf9 insect cells
# [5] = Selectivity ratio of IC50 for human HDAC4 expressed in baculovirus infected sf9 insect cells to IC50 for human N-terminal GST-tagged HDAC6 expressed in baculovirus infected sf9 insect cells
# [6] = Stability in rat liver S9 fraction assessed as parent compound remaining at 5 uM after 90 mins in presence of NADPH by LC-MS/MS analysis; format: ADME, subcellular; conditions: read-out: Stability
# PBMC = test: Cytotoxicity against human PBMC cells after 72 hrs by CellTiter 96 aqueous one solution assay; format: cell-based
# [7] = Selectivity ratio of IC50 for C-terminal His-tagged human HDAC9 (604 to 1066 residues) expressed in baculovirus infected sf9 insect cells to IC50 for human N-terminal GST-tagged HDAC6 expressed in baculovirus infected sf9 insect cells
# [8] = Selectivity ratio of IC50 for C-terminal His-tagged human HDAC8 expressed in baculovirus infected sf9 insect cells to IC50 for human N-terminal GST-tagged HDAC6 expressed in baculovirus infected sf9 insect cells
# [9] = Selectivity ratio of IC50 for C-terminal GST-tagged human HDAC5 to IC50 for human N-terminal GST-tagged HDAC6 expressed in baculovirus infected sf9 insect cells
# [10] = Stability in human liver S9 fraction assessed as parent compound remaining at 5 uM after 90 mins in presence of NADPH by LC-MS/MS analysis; format: ADME, subcellular; conditions: read-out: Stability
# [11] = Selectivity ratio of IC50 for N-terminal GST-tagged human HDAC7 (518 to end residues) expressed in baculovirus infected sf9 insect cells to IC50 for human N-terminal GST-tagged HDAC6 expressed in baculovirus infected sf9 insect cells
# [12] = Selectivity ratio of IC50 for N-terminal His-tagged human HDAC11 expressed in baculovirus expression system to IC50 for human N-terminal GST-tagged HDAC6 expressed in baculovirus infected sf9 insect cells
Compound,"remaining at 4 h, 100 µM [1]",IC50 697,"remaining at 4 h, 100 µM [2]",IC50 [3],"remaining at […], 5 µM [6]",IC50 (PBMC),"remaining at […], 5 µM [10]",other results
COc1ccc(CC(=O)N[C@@H](Cc2cscn2)C(=O)Nc2ccc(C(=O)NO)cc2)cc1OC,18%,> 10000 nM,100%,5 nM,,,,
O=C(CCCCCCNC(=O)c1cnc(N(c2ccccc2)c2ccccc2)nc1)NO [RICOLINOSTAT],91%,201 nM,100%,,,,,
O=C(NO)c1ccc(CC(=O)N(CCO)c2ccccc2)cc1,45%,8330 nM,79%,,,,,
CCCCN(Cc1ccc(C(=O)NO)cc1)C(=O)Nc1ccccc1 [NEXTURASTAT A],40%,401 nM,100%,,,,,
Cc1cc(-c2nnc(Sc3c(F)cc(C(=O)NO)cc3F)n2C)nn1C,80%,> 1000 nM,92%,6 nM,30%,> 1000 nM,76%,inhibition (INH) (Histone deacetylase): Active; Ratio IC50 [4]: 497; Ratio IC50 [5]: 48; Ratio IC50 [7]: 24; Ratio IC50 [8]: 19; Ratio IC50 [9]: 42; Ratio IC50 [11]: 48; Ratio IC50 [12]: 294
O=C(NO)c1ccc(Cn2cccn2)cc1,,,,102 nM,,,,
O=C(NO)c1cnc(NC2(c3ccccc3)CC2)nc1,12%,3390 nM,100%,,,,,
CCN(CC)Cc1ccc2cc(COC(=O)Nc3ccc(C(=O)NO)cc3)ccc2c1 [GIVINOSTAT],72%,100 nM,97%,,6%,313 nM,83%,
O=C(NO)c1ccc(Cn2nnc(-c3ncccn3)n2)cc1,99%,> 1000 nM,76%,7 nM,99%,> 1000 nM,83%,Ratio IC50 [4]: 111; Ratio IC50 [5]: 665; Ratio IC50 [7]: 246; Ratio IC50 [8]: 46; Ratio IC50 [9]: 721; Ratio IC50 [11]: 146; Ratio IC50 [12]: 103
Nc1ccc(-c2nnn(Cc3c(F)cc(C(=O)NO)cc3F)n2)cc1,77%,> 1000 nM,88%,3 nM,48%,> 1000 nM,74%,inhibition (INH) (Histone deacetylase): Active; Ratio IC50 [4]: 138; Ratio IC50 [5]: 162; Ratio IC50 [7]: 118; Ratio IC50 [8]: 230; Ratio IC50 [9]: 144; Ratio IC50 [11]: 325; Ratio IC50 [12]: 86
O=C(NO)c1ccc(Sc2nnc(-c3ccccc3)o2)cc1,,,,6 nM,,,,
O=C(NO)c1ccc(Cc2nnc(-c3ccccc3)s2)cc1,,,,16 nM,,,,
O=C(NO)c1ccc(Cc2nnc(-c3ccccc3)[nH]2)cc1,,,,5 nM,,,,
O=C(NO)c1cc(F)c(Cn2nnc(-c3ccccn3)n2)c(F)c1,87%,> 1000 nM,96%,,97%,> 1000 nM,86%,Ratio IC50 [4]: 1463; Ratio IC50 [5]: 139; Ratio IC50 [7]: 102; Ratio IC50 [8]: 138; Ratio IC50 [9]: 141; Ratio IC50 [11]: 119; Ratio IC50 [12]: 696
Cn1c(Sc2c(F)cc(C(=O)NO)cc2F)nnc1-c1ccc(CN2CCCCC2)cc1,75%,> 1000 nM,90%,,74%,> 1000 nM,69%,Ratio IC50 [4]: 814; Ratio IC50 [5]: 126; Ratio IC50 [7]: 36; Ratio IC50 [8]: 32; Ratio IC50 [9]: 101; Ratio IC50 [11]: 83; Ratio IC50 [12]: 342
Cn1c(Cc2ccc(C(=O)NO)cc2)nnc1-c1ccccc1,,,,17 nM,,,,
O=C(NO)c1ccc(Nc2nnc(-c3ccccc3)s2)cc1,,,,66 nM,,,,
Cc1csc(Nc2ccc(C(=O)NO)cc2)n1,,,,137 nM,,,,
O=C(NO)c1ccc(Sc2ncc(-c3ccccc3)s2)cc1,,,,62 nM,,,,
Cc1cc(-c2nnc(Sc3ccc(C(=O)NO)c(F)c3)n2C)nn1C,,,,2240 nM,,,,
O=C(NO)c1cc(F)c(Cn2nnc(-c3ncccn3)n2)c(F)c1,78%,> 1000 nM,93%,,96%,> 1000 nM,89%,
Cn1c(Sc2c(F)cc(C(=O)NO)cc2F)nnc1-c1ncccc1F,100%,> 1000 nM,97%,,70%,> 1000 nM,80%,inhibition (INH) (Histone deacetylase): Active; Ratio IC50 [4]: 432; Ratio IC50 [5]: 53; Ratio IC50 [7]: 24; Ratio IC50 [8]: 64; Ratio IC50 [9]: 54; Ratio IC50 [11]: 38; Ratio IC50 [12]: 250
CN1CCc2c(c3ccccc3n2Cc2ccc(C(=O)NO)cc2)C1 [TUBASTATIN A],38%,2010 nM,98%,,,,,
Cn1c(Sc2c(F)cc(C(=O)NO)cc2F)nnc1-c1cccs1,87%,> 1000 nM,99%,,71%,> 1000 nM,83%,inhibition (INH) (Histone deacetylase): Active; Ratio IC50 [4]: 763; Ratio IC50 [5]: 155; Ratio IC50 [7]: 55; Ratio IC50 [8]: 21; Ratio IC50 [9]: 171; Ratio IC50 [11]: 61; Ratio IC50 [12]: 254
O=C(NO)c1ccc(Sc2nnc(-c3ccccc3)s2)cc1,,,,6 nM,,,,
O=C(NO)c1cc(F)c(Cc2nnc(-c3ccncc3)s2)c(F)c1,84%,> 1000 nM,93%,,32%,> 1000 nM,68%,inhibition (INH) (Histone deacetylase): Active; Ratio IC50 [4]: 507; Ratio IC50 [5]: 101; Ratio IC50 [7]: 44; Ratio IC50 [8]: 139; Ratio IC50 [9]: 67; Ratio IC50 [11]: 77; Ratio IC50 [12]: 291
O=C(NO)c1ccc(-c2nnc(-c3ccccc3)o2)cc1,,,,660 nM,,,,
Cc1cc(-c2nnc(Sc3c(F)c(F)c(C(=O)NO)c(F)c3F)n2C)nn1C,,,,2530 nM,,,,
O=C(NO)c1ccc(Cn2nnnc2-c2ccccc2)cc1,,,,9 nM,,,,
O=C(NO)c1ccc(Cc2noc(-c3ccccc3)n2)cc1,,,,6 nM,,,,
